How the values were obtained:
[1] = test system: OPM2 or RPMI-8226 target cells; test: Cytolytic activity of anti-BCMA CAR-T cells co-cultured with target cells +/- LY3039478 (IncuCyte); format: cell-based, human
Description: In this study, to generate anti-BCMA CAR-expressing T cells, CD4+ and CD8+ T cells were isolated by immunoaffinity-based enrichment from leukapheresis samples from two healthy donor subjects and one myeloma patient. Isolated T cells were activated and transduced with a viral vector encoding an anti-BCMA CAR. The CAR contained an scFv antigen-binding domain specific for BCMA having a VH domain and a VL domain with amino acid sequences set forth in SEQ ID NOS: 24 and 25, respectively, a spacer, a spacer having an amino acid sequence set forth in SEQ ID NO:31, a CD28 transmembrane region, a 4-1BB costimulatory signaling region and a CD3-zeta derived intracellular signaling domain. The nucleic acid construct encoding the CAR also included a truncated receptor sequence for use as a transduction marker, separated from the CAR sequence by a self-cleaving T2A sequence.
(§1) Anti-BCMA CAR-T cells generated as described in this Example above were cultured at 37° C. with either OPM2 or RPMI-8226 target cells at an effector to target (E:T) ratio of 0.3:1. The target cells were labeled with NucLight Red (NLR), to permit tracking of target cells by microscopy. Cultures were incubated in the absence of LY3039478 or in the presence of LY3039478 at concentrations of 0.1 nM, 1 nM, 10 nM, 100 nM, 1000 nM, 10000 nM or 100000 nM (the range covering the estimated human pharmacokinetic range is shown by the boxes in FIGS. 3A-3D). As a control, target cells were incubated with LY3039478 but without culture with CAR-T cells. Cytolytic activity was assessed by measuring the loss of viable target cells after about 150 hours, as determined by red fluorescent signal (using the IncuCyte® Live Cell Analysis System, Essen Bioscience). The area under the curve for killing observed during the culture period (˜150 hours) was determined. Percent lysis (% killing) was determined by normalizing the AUC for killing to cultures incubated without the inhibitor.

OPM2 target cells = test: Similar study: concentration dependence of anti-BCMA CAR-T cytolytic function; format: cell-based; settings: Homo sapiens, OPM-2; OPM2, one exemplary donor; read-out: increasing anti-BCMA CAR-T killing of BCMA-expressing target cells, IC50
Procedure: as §1
A similar study was carried out to further assess the effects of different concentrations of LY3039478, including concentrations within the estimated Cmax/Cmin for the inhibitor, on the cytolytic function of anti-BCMA CAR-T cells against OPM2 target cells.

[2] = test system: RPMI-8226, OPM2, or MM1.S; test: Re-challenge of chronically stimulated anti-BCMA CAR+ T cells with target cells +/- LY3039478; format: cell-based, human
Procedure: The effect of a gamma secretase inhibitor compound, LY3039478, on the cytotoxicity of anti-BCMA CAR+ T cells after long-term CAR-specific stimulation was assessed. Anti-BCMA CAR+ T cell compositions, generated as described in Example 2 containing anti-BCMA CAR-expressing CD4+ and CD8+ T cells, were incubated with 50 μg/mL BCMA-Fc conjugated beads for 7 days, under conditions designed to functionally exhaust the CAR T cells.
The CAR-T cells then were re-challenged with antigen-expressing target cells in the presence or absence of LY3039478. […] To assess cytolytic activity, the target cells were labeled with NucLight Red (NLR) to permit tracking by fluorescent microscopy. Killing activity was assessed by measuring the loss of viable target cells over time, as determined by loss of fluorescent signal over time by kinetic fluorescence microscopy (using the INCUCYTE® Live Cell Analysis System, Essen Bioscience). Target fluorescence was monitored over time and was normalized to target cell count.
A killing index was determined as the inverse of the area under the curve (AUC) for target fluorescence over time, and was normalized relative to DMSO vehicle control. […]

[3] = test system: BCMA on the surface of multiple myeloma cells; test: BCMA surface expression on multiple myeloma cells in patients given oral LY3039478; format: in vivo, human; settings: mean, three 25 mg oral doses
Procedure: Three human subjects having multiple myeloma were administered three 25 mg doses of the gamma secretase inhibitor (GSI) LY3039478 by mouth. The absolute B cell maturation antigen (BCMA) antibody binding capacity (ABC) on the surface of multiple myeloma cells was quantitated by flow cytometry performed on bone marrow aspirate specimens obtained from each of the patients prior to administration of the GSI, and immediately after the third oral GSI dose. A mean 66-fold increase in BCMA ABC was observed following GSI administration (FIG. 15A).

With `C[C@H](NC(=O)CCC(F)(F)F)C(=O)N[C@@H]1C(=O)N(CCO)c2ncccc2-c2ccccc21` [LY3039478, 4,4,4-trifluoro-N-[(1S)-2-[[(7S)-5-(2-hydroxyethyl)-6-oxo-7H-pyrido[2,3-d][3]benzazepin-7-yl]amino]-1-methyl-2-oxo-ethyl]butanamide] the “cytolytic activity of anti-BCMA CAR T cells (% killing)” value ([1]; 0.1 nM to 100000 nM, E:T 0.3:1, about 150 hours, myeloma patient-derived CAR-T, OPM2 and RPMI-8226) was “increased the cytolytic activity”, the “detrimental effects on CAR T cell function” value ([1]; 100 μM LY3039478) was “No detrimental effects” and the CAR-T function ([1]; CAR-T cells derived from the other donors) was “increase in CAR-T function”. The target survival ([1]; LY3039478 alone without CAR-T cells) was “No differences”, the IC50 (OPM2 target cells) was 0.1 to 0.25 nM and the “function of chronically stimulated anti-BCMA CAR-expressing T cells to produce cytokines (TNF-alpha, IFN-gamma, IL-2)” value ([2]; 1 μM LY3039478, 24 hours, E:T 0.3:1 and 1:1) was “improved function”. For the same molecule, the “cytolytic activity of chronically stimulated anti-BCMA CAR+ T cells” value ([2]; 1 μM LY3039478 vs DMSO, E:T 0.3:1) was “improved cytolytic activity”, the “increase in BCMA antibody binding capacity (ABC) following GSI administration” value ([3]; three subjects, bone marrow aspirate) was 66 fold and the “percentage of plasma cells with measurable surface BCMA expression following the three oral doses” value ([3]; 35% (mean) before GSI) was 98.4%.

Source: US12193994B2, “Combination of a cell therapy and a gamma secretase inhibitor” (Juno Therapeutics, Inc., priority 2017, dated 2025)
